In patent publication US7071383B2, “Chimeric genes and methods for increasing the lysine and threonine content of the seeds of plants” (E. I. du Pont de Nemours and Company, priority 1992, dated 2006):
Where “and” joins values, the source holds several entries; their conditions need not be identical. Identical values can stand only once.

Experiments:
[1] = tested on: Gif106M1 transformed with pBT436; test: Growth inhibition by lysine in M9 media; format: cell-based, E. coli
Protocol: Addition of lysine (or diaminopimelate which is readily converted to lysine in vivo) at a concentration of approximately 0.2 mM to the growth medium inhibits the growth of Gif106M1 transformed with pBT436. M9 media [see Sambrook et al. (1989) Molecular Cloning, A Laboratory Manual, Cold Spring Harbor Laboratory Press] supplemented with the arginine and isoleucine, required for Gif106M1 growth, and ampicillin, to maintain selection for the pBT436 plasmid, was used. This inhibition is reversed by addition of threonine plus methionine to the growth media. […] This property of pBT436-transformed Gif106M1 was used to select for mutations in lysC that encoded lysine-insensitive AKIII.

E. coli DHDPS = molecular target: T1, E. coli DHDPS (Escherichia coli, UniProt P0A6L2, F2V); test: biochemical; format: biochemical
T1 construct: the chloroplast targeting signal fused to the entire ecodapA coding region; expressed in transfected cells; host or cells: transgenic tobacco plants, leaf extracts (35S promoter) or mature seed extracts (phaseolin promoter)
T1 sequence (P0A6L2 whole entry F2V, the tested form may be a part): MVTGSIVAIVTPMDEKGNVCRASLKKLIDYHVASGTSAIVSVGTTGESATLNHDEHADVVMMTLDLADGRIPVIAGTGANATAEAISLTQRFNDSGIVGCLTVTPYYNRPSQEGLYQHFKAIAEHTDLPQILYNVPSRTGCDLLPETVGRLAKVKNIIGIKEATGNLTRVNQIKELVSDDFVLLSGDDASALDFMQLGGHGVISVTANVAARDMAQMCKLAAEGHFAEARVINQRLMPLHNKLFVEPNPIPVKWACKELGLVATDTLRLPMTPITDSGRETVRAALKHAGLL
Protocol: (§1) DHDPS enzyme activity was assayed as follows: Assay mix (for 10×1.0 mL assay tubes or 40×0.25 mL for microtiter dish); made fresh, just before use:
(§2) Color allowed to develop for 30-60 min. Precipitate spun down in eppendorf centrifuge. OD540 vs 0 min read as blank. For MicroAssay, aliquot 0.2 mL into microtiter well and read at OD530.
For Corynebacterium DHDPS, the activity was measured in the supernatant fraction of uninduced extracts, rather than induced extracts.

tobacco DHDPS = test: DHDPS enzyme assay of plant extracts, sensitivity to lysine; format: biochemical
Protocol: The leaf extracts were assayed for DHDPS activity as described in Example 4.
To test this hypothesis, total protein extracts were prepared from mature seeds and assayed for DHDPS activity. Approximately 30-40 mg of seeds were put into a 1.5 mL disposable plastic microfuge tube and ground in 0.25 mL of 50 mM Tris-HCl, 50 mM NaCl, 1 mM EDTA (TNE). The grinding was done using a motorized grinder with disposable plastic shafts designed to fit into the microfuge tube. The resultant suspensions were centrifuged for 5 min at room temperature in a microfuge to remove particulates. Approximately 0.1 mL of aqueous supernatant was removed between the pelleted material and the upper oil phase. The seed extracts were assayed for DHDPS activity as described in Example 4.
To assay for expression of the chimeric genes in leaves of the transformed plants, protein was extracted as described in Example 7 for AKIII, and as described in Example 9 for DHDPS. The leaf extracts were assayed for DHDPS activity as described in Examples 4 and 9. […] Extracts were characterized immunologically for expression of AKIII and DHDPS proteins via Western blots as described in Examples 7 and 10.

Corynebacterium DHDPS = molecular target: T2, Corynebacterium DHDPS (Corynebacterium glutamicum, UniProt P19808); test: DHDPS enzyme assay, sensitivity to L-lysine; format: biochemical; conditions: 70 mM L-lysine
T2 construct: made in house; host or cells: E. coli BL21(DE3), supernatant of uninduced extract
T2 sequence (P19808 other isoform, or with tags, fused parts or gaps): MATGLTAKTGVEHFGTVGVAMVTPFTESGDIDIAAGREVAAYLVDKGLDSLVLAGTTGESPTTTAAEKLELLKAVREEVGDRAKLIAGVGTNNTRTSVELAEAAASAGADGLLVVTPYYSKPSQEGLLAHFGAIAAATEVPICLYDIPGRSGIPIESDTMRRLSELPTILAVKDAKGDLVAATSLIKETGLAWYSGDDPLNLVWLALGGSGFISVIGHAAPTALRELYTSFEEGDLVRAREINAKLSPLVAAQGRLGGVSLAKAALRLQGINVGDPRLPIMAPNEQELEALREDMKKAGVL
Protocol: as §1, §2
E. coli DHDPS was sensitive to the presence of L-lysine in the assay. Fifty percent inhibition was found at a concentration of about 0.5 mM. For Corynebacterium DHDPS, the activity was measured in the supernatant fraction of uninduced extracts, rather than induced extracts. Enzyme activity was about 4 OD530 units per min per milligram protein in a 0.25 mL assay.

AKIII-M2 = molecular target: T3, AKIII-M2 (Escherichia coli, UniProt P08660, G401A/M318I); test: AK enzyme assay, sensitivity to L-lysine; format: biochemical, E. coli; conditions: 15 mM L-lysine
T3 construct: made in house; host or cells: E. coli BL21(DE3), crude extract
T3 sequence (P08660 other isoform, or with tags, fused parts or gaps M318I/G401A): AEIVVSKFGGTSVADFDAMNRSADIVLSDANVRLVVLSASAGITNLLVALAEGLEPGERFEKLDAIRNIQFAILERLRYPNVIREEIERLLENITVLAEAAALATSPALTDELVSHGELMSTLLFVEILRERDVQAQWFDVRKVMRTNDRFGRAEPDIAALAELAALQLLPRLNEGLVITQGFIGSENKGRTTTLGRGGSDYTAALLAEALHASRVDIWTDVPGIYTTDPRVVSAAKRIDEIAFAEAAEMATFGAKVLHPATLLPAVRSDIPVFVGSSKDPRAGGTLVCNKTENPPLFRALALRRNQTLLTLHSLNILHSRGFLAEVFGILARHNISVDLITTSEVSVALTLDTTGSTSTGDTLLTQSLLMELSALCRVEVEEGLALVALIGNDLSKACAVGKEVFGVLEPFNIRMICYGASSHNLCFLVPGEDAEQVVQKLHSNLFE
Protocol: (§3) AK activity was assayed as shown below:
(§4) Assay mix (for 12 assay tubes): • 4.5 mL H2O • 1.0 mL 8M KOH • 1.0 mL 8M NH2OH-HCl • 1.0 mL IM Tris-HCl pH 8.0 • 0.5 mL 0.2M ATP (121 mg/mL in 0.2M NaOH) • 50 μL 1M MgSO4
(§5) Each 1.5 mL eppendorf assay tube contained: • 0.64 mL assay mix • 0.04 mL 0.2 M L-aspartic acid or 0.04 mL H2O • 0.0005-0.12 mL extract • H2O to total volume 0.8 mL
(§6) Assay tubes were incubated at 30° C. for desired time (10-60 min). Then 0.4 mL FeCl3 reagent (10% w/v FeCl3, 3.3% trichloroacetic acid, 0.7 M HCl) was added and the material centrifuged for 2 min in an eppendorf centrifuge. The supernatant was decanted. The OD was read at 540 nm and compared to the aspartyl-hydroxamate standard.
(§7) Approximately 80% of the AKIII activity was in the supernatant fraction. The specific activity of wild type and mutant crude extracts was 5-7 μM product per min per milligram total protein. Wild type AKIII was sensitive to the presence of L-lysine in the assay.

AKIII-M3 = molecular target: T4, AKIII-M3 (Escherichia coli, UniProt P08660, G401A/T352I); test: AK enzyme assay, sensitivity to L-lysine; format: biochemical, E. coli; conditions: 15 mM L-lysine
T4 construct: made in house; host or cells: E. coli BL21(DE3), crude extract
T4 sequence (P08660 other isoform, or with tags, fused parts or gaps T352I/G401A): as the sequence (P08660 other isoform, or with tags, fused parts or gaps M318I/G401A) above, with I317M, T351I counted along it
Protocol: as §3, §4, §5, §6, §7

Wild type AKIII = molecular target: T5, Wild type AKIII (Escherichia coli, UniProt P08660, G401A); test: AK enzyme assay, sensitivity to L-lysine; format: biochemical, E. coli
T5 construct: the coding region of the wild type E. coli lysC gene, which encodes AKIII; made in house; host or cells: E. coli BL21(DE3), supernatant of crude extract
T5 sequence (P08660 other isoform, or with tags, fused parts or gaps G401A): as the sequence (P08660 other isoform, or with tags, fused parts or gaps M318I/G401A) above, with I317M counted along it
Protocol: as §3, §4, §5, §6, §7

AKIII-M4 = molecular target: T6, AKIII-M4 (Escherichia coli, UniProt P08660, G401A/T352I); test: AK enzyme assay, sensitivity to L-lysine; format: biochemical, E. coli; conditions: 15 mM L-lysine
T6 construct: made in house; host or cells: E. coli BL21(DE3), crude extract
T6 sequence (P08660 other isoform, or with tags, fused parts or gaps T352I/G401A): as the sequence (P08660 other isoform, or with tags, fused parts or gaps M318I/G401A) above, with I317M, T351I counted along it
Protocol: as §3, §4, §5, §6, §7

DE126 = test: Growth inhibition by L-lysine in synthetic medium; format: cell-based, E. coli
Protocol: (4) This step involves production of a male derivative of strain DE125. Strain DE125 was mated with the male strain AB1528 [F′16/delta(gpt-proA)62, lacY1 or lacZ4, glnV44, galK2 rac^−(?), hisG4, rfbd1, mgl-51, kdgK51(?), ilvC7, argE3, thi-1] (E. coli Genetic Stock Center #1528) by the method of conjugation. F′16 carries the ilvGMEDAYC gene cluster. The two strains were cross streaked on rich medium permissive for the growth of each strain. After incubation, the plate was replica plated to a synthetic medium containing tetracycline, arginine, vitamin B1 and glucose. DE125 cannot grow on this medium because it cannot synthesize isoleucine. Growth of AB1528 is prevented by the inclusion of the antibiotic tetracycline and the omission of proline and histidine from the synthetic medium. A patch of cells grew on this selective medium. These recombinant cells underwent single colony isolation on the same medium. The phenotype of one clone was determined to be Ilv^+, Arg^−, TetR, Lysine-sensitive, male specific phage (MS2)-sensitive, consistent with the simple transfer of F′16 from AB1528 to DE125. This clone was designated DE126 and has the genotype F′16/malE52::Tn10, arg^−, ilvA296, thrA1101, metL100, lysC^+, λ^−, rpsL9, malT1, xyl-7, mtl-2, thi-1?, supE44?. It is inhibited by 20 μg/mL of L-lysine in a synthetic medium.

Compound: NCCCC[C@H](N)C(=O)O [L-lysine]
- concentration in growth medium that inhibits growth [1]: approximately 0.2 mM
- IC50 (E. coli DHDPS): ~500 µM
- activity retained (E. coli DHDPS; 0.1 mM lysine, leaf extracts): 80-90%
- activity retained (E. coli DHDPS; 0.4 mM lysine, seed extracts): about 50%
- fold less sensitive to inhibition by lysine than a typical plant DHDPS (E. coli DHDPS; vs wheat germ DHDPS): about 20 fold
- inhibition by lysine (tobacco DHDPS; 0.1 mM lysine, leaf extracts): completely inhibited
- inhibition by lysine (tobacco DHDPS; 0.4 mM lysine, seed extracts): completely inhibited
- inhibition by L-lysine (Corynebacterium DHDPS): not inhibited at all
- inhibition by L-lysine (AKIII-M2): not inhibited at all
- inhibition by L-lysine (AKIII-M3): not inhibited at all
- inhibition of wild type AKIII (Wild type AKIII; 1 mM lysine): > 90%
- IC50 (Wild type AKIII; L-lysine concentration for fifty percent inhibition of AKIII, crude extract): ~400 µM and 300 to 400 µM
- inhibition by L-lysine (AKIII-M4): not inhibited at all
- concentration that inhibits growth (DE126): 20 µg/mL
